These results are taken from ChEMBL document CHEMBL3600363, “Discovery of potent, selective small molecule inhibitors of α-subtype of type III phosphatidylinositol-4-kinase (PI4KIIIα)” (Bioorg Med Chem Lett, 2015).

Test [1] has as its target T1, Phosphatidylinositol 4,5-bisphosphate 3-kinase catalytic subunit delta isoform (Homo sapiens, UniProt O00329).
T1 sequence (O00329 whole entry): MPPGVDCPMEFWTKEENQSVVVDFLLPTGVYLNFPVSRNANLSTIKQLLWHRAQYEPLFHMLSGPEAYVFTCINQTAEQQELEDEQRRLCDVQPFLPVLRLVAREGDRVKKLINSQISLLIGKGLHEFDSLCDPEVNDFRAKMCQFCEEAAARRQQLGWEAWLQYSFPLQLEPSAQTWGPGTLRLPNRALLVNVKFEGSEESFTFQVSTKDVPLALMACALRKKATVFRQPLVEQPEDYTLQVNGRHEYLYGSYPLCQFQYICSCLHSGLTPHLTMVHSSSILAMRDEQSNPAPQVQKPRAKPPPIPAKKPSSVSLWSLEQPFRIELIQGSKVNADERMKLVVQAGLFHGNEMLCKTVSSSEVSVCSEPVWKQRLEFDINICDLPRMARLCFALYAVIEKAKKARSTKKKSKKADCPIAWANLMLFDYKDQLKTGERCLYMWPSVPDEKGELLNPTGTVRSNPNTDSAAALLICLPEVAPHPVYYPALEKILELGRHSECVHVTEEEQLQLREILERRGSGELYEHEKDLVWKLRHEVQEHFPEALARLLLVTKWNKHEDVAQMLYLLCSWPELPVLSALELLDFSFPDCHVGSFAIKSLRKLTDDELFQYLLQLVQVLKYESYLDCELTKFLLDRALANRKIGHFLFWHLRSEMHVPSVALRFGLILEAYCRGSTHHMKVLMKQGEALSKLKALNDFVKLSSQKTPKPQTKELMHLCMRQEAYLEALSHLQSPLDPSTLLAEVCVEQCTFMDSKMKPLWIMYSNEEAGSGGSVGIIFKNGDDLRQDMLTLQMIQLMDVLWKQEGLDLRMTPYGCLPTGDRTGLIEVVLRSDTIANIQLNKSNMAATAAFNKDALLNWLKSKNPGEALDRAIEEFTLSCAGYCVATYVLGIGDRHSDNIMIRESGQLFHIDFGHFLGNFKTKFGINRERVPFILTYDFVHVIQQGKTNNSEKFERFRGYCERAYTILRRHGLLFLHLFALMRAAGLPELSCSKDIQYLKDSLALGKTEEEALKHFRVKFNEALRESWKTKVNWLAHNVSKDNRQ
The test is described as follows: Inhibition of PI3Kdelta (unknown origin) pre-incubated for 20 mins before phosphatidylinositol 4, 5-bisphosphate substrate addition by kinase-glo plus luminescence assay.

The target of test [2] is Phosphatidylinositol 4-kinase beta (Homo sapiens, UniProt Q9UBF8). Briefly: Inhibition of N-terminal GST-tagged human full length recombinant PI4K3beta expressed in Sf9 cells using D-myo-phosphatidylinositol substrate and ATP incubated for 45 mins by ADP-Glo kinase Assay.
Test [3] has as its target Phosphatidylinositol 4,5-bisphosphate 3-kinase catalytic subunit gamma isoform (Homo sapiens, UniProt P48736). Briefly: Inhibition of PI3Kgamma (unknown origin) pre-incubated for 20 mins before phosphatidylinositol 4, 5-bisphosphate substrate addition by kinase-glo plus luminescence assay.
In test [4] the target is Phosphatidylinositol 4-kinase alpha (Homo sapiens, UniProt P42356). The test is described as follows: Inhibition of N-terminal FLAG-tagged human full length recombinant PI4K3alpha using D-myo-phosphatidylinositol substrate and ATP incubated for 45 mins by ADP-Glo kinase Assay.
The target of test [5] is Phosphatidylinositol 4-phosphate 5-kinase type-1 gamma (Homo sapiens, UniProt O60331). Briefly: Inhibition of PIP5K1C (unknown origin) using D-myo-phosphatidylinositol 4-phosphate substrate and ATP by ADP-Glo kinase Assay.
The target in test [6] is Phosphatidylinositol 4,5-bisphosphate 3-kinase catalytic subunit beta isoform (Homo sapiens, UniProt P42338). The test is described as follows: Inhibition of PI3Kbeta (unknown origin) pre-incubated for 20 mins before phosphatidylinositol 4, 5-bisphosphate substrate addition by kinase-glo plus luminescence assay.
Test [7] deals with Phosphatidylinositol 4,5-bisphosphate 3-kinase catalytic subunit alpha isoform (Homo sapiens, UniProt P42336). The test is described as follows: Inhibition of PI3Kalpha (unknown origin) pre-incubated for 20 mins before phosphatidylinositol 4, 5-bisphosphate substrate addition by kinase-glo plus luminescence assay.

Phosphatidylinositol 4-kinase alpha, sequence (P42356 whole entry): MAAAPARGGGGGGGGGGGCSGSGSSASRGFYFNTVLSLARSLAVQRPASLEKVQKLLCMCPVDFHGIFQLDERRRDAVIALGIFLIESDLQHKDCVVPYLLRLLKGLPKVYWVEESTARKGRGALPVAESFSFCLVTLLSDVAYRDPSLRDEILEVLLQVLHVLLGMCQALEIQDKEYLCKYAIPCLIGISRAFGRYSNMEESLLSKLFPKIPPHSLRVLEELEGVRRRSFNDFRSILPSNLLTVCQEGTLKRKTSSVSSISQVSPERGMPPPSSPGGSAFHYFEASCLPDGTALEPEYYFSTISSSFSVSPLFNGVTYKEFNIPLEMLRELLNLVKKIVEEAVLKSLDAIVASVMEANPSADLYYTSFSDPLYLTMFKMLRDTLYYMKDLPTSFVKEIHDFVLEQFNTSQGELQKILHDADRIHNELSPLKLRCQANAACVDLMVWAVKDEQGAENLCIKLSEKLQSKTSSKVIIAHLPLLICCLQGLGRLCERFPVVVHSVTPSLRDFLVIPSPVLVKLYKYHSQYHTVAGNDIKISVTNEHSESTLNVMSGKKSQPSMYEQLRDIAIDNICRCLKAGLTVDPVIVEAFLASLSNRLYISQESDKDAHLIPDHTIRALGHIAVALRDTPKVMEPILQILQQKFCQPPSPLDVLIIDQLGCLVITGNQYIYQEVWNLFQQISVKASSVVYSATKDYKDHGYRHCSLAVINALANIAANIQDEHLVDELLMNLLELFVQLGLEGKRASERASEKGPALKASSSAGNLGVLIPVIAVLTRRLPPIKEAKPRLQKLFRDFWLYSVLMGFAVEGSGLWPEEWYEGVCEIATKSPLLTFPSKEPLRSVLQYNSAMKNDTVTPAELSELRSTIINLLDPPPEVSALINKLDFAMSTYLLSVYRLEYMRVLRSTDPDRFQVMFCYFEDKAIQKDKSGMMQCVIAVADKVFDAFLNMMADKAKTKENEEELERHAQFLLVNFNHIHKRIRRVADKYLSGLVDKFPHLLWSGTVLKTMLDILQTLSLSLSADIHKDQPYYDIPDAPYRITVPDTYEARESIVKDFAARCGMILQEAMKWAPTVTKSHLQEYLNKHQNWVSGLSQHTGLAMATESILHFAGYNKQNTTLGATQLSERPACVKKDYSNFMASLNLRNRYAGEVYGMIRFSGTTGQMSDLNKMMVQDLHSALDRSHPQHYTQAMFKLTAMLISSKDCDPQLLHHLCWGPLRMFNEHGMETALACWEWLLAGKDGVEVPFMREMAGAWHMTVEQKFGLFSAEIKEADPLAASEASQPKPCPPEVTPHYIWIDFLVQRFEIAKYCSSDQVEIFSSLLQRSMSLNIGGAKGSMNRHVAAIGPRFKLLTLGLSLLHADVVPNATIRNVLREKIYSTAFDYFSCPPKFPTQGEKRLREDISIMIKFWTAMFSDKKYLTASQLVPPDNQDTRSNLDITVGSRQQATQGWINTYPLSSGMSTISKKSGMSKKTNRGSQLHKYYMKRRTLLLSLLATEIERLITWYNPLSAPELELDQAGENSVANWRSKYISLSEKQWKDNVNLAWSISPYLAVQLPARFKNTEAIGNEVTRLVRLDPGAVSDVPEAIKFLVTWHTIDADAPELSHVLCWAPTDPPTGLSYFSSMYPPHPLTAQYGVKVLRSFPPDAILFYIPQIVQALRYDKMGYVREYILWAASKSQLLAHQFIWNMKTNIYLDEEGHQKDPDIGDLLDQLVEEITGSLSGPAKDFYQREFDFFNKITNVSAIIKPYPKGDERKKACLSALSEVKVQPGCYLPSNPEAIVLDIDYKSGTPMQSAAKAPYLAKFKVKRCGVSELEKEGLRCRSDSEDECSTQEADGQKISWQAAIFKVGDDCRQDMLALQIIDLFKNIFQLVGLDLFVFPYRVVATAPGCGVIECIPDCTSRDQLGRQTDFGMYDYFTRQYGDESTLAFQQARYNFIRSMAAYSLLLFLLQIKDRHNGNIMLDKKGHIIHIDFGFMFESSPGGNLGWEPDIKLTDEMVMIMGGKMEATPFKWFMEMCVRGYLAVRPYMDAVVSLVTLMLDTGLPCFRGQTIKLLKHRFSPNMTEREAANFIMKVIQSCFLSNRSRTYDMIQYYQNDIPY
Phosphatidylinositol 4-kinase beta, sequence (Q9UBF8 whole entry, canonical isoform): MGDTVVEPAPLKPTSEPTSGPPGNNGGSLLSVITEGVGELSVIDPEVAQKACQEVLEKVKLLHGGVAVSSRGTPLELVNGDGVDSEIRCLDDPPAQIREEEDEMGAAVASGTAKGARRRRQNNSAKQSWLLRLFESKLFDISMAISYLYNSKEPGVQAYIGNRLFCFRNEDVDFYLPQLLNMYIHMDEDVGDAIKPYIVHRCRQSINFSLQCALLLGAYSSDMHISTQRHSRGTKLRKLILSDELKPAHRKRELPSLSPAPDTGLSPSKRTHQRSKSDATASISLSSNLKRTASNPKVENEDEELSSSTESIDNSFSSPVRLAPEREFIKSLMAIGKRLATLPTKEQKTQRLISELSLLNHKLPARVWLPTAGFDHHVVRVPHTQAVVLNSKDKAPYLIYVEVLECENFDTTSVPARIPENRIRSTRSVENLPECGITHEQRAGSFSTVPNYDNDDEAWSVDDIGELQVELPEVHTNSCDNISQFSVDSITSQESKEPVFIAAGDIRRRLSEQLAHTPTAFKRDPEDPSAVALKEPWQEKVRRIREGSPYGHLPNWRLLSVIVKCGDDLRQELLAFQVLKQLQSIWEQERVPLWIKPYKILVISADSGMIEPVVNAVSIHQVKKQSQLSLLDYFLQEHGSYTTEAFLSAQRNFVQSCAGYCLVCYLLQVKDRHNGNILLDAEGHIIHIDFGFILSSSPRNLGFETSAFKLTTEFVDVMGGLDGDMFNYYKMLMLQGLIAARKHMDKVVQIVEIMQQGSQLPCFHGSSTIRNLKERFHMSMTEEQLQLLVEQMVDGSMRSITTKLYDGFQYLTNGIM
Phosphatidylinositol 4,5-bisphosphate 3-kinase catalytic subunit gamma isoform, sequence (P48736 whole entry, canonical isoform): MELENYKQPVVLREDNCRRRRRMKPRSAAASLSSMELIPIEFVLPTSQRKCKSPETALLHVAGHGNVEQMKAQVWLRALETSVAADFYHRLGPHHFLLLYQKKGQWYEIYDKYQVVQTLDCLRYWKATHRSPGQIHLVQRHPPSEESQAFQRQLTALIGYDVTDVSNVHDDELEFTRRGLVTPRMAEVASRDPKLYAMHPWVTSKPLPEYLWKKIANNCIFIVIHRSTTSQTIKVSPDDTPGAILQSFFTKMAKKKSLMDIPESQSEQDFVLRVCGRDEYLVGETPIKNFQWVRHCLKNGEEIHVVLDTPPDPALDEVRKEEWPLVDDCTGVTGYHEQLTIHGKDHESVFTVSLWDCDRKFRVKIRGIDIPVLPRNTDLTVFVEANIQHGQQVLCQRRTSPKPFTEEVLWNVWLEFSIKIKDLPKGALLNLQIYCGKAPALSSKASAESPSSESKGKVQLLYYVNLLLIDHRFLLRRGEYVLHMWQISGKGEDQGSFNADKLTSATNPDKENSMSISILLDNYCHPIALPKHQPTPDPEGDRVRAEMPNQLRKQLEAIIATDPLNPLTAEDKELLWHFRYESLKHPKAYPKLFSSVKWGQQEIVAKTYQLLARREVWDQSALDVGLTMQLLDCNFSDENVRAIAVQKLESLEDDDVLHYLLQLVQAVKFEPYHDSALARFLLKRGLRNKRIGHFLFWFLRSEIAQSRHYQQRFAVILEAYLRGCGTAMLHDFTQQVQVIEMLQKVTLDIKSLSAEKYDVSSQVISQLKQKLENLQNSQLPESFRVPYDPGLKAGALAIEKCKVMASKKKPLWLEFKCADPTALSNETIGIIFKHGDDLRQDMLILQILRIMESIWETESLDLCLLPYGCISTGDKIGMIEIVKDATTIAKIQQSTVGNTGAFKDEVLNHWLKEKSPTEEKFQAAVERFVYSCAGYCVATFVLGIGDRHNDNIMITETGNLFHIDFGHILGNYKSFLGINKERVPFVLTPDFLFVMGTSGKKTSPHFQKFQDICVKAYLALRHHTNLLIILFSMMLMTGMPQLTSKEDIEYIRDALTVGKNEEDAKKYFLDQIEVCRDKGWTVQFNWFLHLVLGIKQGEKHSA
Phosphatidylinositol 4,5-bisphosphate 3-kinase catalytic subunit beta isoform, sequence (P42338 whole entry, canonical isoform): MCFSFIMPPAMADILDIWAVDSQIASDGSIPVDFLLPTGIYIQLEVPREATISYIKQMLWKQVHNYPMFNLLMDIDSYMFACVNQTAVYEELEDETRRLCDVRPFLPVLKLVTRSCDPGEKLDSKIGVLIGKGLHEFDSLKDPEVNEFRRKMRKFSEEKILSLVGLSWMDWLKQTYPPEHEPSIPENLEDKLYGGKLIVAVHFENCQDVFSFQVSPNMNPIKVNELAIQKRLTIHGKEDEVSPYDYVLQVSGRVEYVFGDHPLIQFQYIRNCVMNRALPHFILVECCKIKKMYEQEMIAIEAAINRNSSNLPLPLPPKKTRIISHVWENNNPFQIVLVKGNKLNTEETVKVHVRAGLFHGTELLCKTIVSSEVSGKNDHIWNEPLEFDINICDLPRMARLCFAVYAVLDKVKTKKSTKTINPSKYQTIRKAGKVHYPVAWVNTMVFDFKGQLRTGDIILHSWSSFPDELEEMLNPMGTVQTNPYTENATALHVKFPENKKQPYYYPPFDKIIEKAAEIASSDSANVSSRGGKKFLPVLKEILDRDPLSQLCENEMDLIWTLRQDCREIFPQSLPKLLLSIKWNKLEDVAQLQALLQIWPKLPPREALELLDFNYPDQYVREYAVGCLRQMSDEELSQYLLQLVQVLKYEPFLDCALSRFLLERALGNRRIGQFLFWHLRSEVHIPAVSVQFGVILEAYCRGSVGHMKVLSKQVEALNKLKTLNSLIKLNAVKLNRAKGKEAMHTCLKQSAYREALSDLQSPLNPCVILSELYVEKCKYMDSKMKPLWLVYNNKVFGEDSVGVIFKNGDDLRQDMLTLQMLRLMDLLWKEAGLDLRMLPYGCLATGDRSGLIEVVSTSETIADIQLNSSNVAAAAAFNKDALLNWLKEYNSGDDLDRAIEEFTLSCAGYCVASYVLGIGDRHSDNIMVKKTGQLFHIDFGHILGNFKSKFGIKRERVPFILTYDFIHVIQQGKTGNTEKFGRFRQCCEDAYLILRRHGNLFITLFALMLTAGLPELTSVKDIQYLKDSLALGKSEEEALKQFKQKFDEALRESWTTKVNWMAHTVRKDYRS

Take `COc1ccc(-c2ccc3nc(N)sc3c2)cn1`: the IC50 in test [1] is 0.794 µM; in test [2], 1 µM; in test [3], 0.398 µM; in test [4], 0.631 µM; in test [5] it was 25.1 µM.

For the compound `Nc1nc2ccc(-c3ccncc3)cc2s1`, the IC50 in test [2] was 1 µM; in test [4], 2.51 µM.

Regarding `COCc1ccc(-c2ccc3nc(N)sc3c2)cn1`, the half-maximal inhibitory concentration (IC50) was 6.31 µM in test [1]; 0.316 µM in test [2]; 1 µM in test [4]; 15.8 µM in test [6]; over 100 µM in test [5]; 2.51 µM in test [7].

`Nc1nc2ccc(-c3ccc(CO)nc3)cc2s1`: the IC50 is 0.794 µM in test [2], 1.58 µM in test [4], over 100 µM in test [5] and 3.16 µM in test [7].

As to `CNC(=O)c1ccc(-c2ccc3nc(N)sc3c2)cn1`, the IC50 is 2.51 µM in test [2], 3.16 µM in test [4], 31.6 µM in test [5] and 2 µM in test [7].

`CN(C)C(=O)c1ccc(-c2ccc3nc(N)sc3c2)cn1`: the half-maximal inhibitory concentration (IC50) is 63.1 µM in test [1]; 39.8 µM in test [2]; 20 µM in test [3]; 1.26 µM in test [4]; 79.4 µM in test [6]; over 100 µM in test [5]. Besides, the IC50 in test [7] was 39.8 µM.

`CC(C)Oc1cncc(-c2ccc3nc(N)sc3c2)c1`: the IC50 in test [1] was 1.26 µM; in test [2], 1 µM; in test [3], 0.251 µM; in test [4], 1 µM; in test [6], 1.26 µM; in test [5], 31.6 µM. The concentration for half-maximal inhibition (IC50) in test [7] is 0.501 µM.

As for `CS(=O)(=O)c1cncc(-c2ccc3nc(N)sc3c2)c1`, the IC50 in test [1] was 0.316 µM; in test [2], 3.98 µM; in test [3], 0.126 µM; in test [4] it was 0.398 µM; in test [6], 0.251 µM; in test [5] it was over 100 µM. Besides, the IC50 in test [7] was 0.251 µM.

As for `Nc1nc2ccc(-c3ccccn3)cc2s1`, the 50% inhibitory concentration (IC50) in test [1] was 79.4 µM; in test [2] it was 2.51 µM; in test [3], 12.6 µM; in test [4], 10 µM; in test [5] it was over 100 µM; in test [7] it was 10 µM.

As to `Nc1nc2ccc(-c3cccnc3)cc2s1`, the half-inhibitory concentration (IC50) is 1.26 µM in test [1]; 0.631 µM in test [2]; 1.58 µM in test [4]; 31.6 µM in test [5]; 2 µM in test [7].

Take `Nc1nc2ccc(-c3ncccn3)cc2s1`: the IC50 is 50.1 µM in test [1]; 6.31 µM in test [2]; 31.6 µM in test [3]; 15.8 µM in test [4]; 31.6 µM in test [5]; over 100 µM in test [7].

Turning to `Nc1nc2ccc(-c3cnccn3)cc2s1`, the IC50 in test [1] is 7.94 µM; in test [2] it was 6.31 µM; in test [3] it was 3.98 µM; in test [4], 7.94 µM; in test [6] it was 6.31 µM; in test [5] it was over 100 µM. Further, the IC50 in test [7] is 2 µM.

As for `Nc1nc2ccc(-c3ccc(=O)[nH]c3)cc2s1`, the half-inhibitory concentration (IC50) in test [1] is 31.6 µM; in test [2], 3.98 µM; in test [3], 10 µM; in test [4], 3.16 µM; in test [6], 50.1 µM; in test [5] it was 39.8 µM. Further, in test [7], the IC50 was 25.1 µM.

`Nc1nc2ccc(-c3cc[nH]c(=O)c3)cc2s1`: the 50% inhibitory concentration (IC50) in test [1] was 10 µM; in test [2], 0.631 µM; in test [3], 1.26 µM; in test [4], 0.316 µM; in test [6] it was 6.31 µM; in test [5] it was 15.8 µM. Also, in test [7], the half-inhibitory concentration (IC50) is 3.98 µM.

Regarding `Cn1ccc(-c2ccc3nc(N)sc3c2)n1`, the concentration for half-maximal inhibition (IC50) in test [1] was 12.6 µM; in test [2], 1.26 µM; in test [3], 2.51 µM; in test [4], 2.51 µM; in test [6], 15.8 µM; in test [5], 63.1 µM. The IC50 in test [7] was 6.31 µM.

With `Cn1nccc1-c1ccc2nc(N)sc2c1`, the 50% inhibitory concentration (IC50) is 25.1 µM in test [1]; 1 µM in test [2]; 2.51 µM in test [3]; 12.6 µM in test [4]; 31.6 µM in test [6]; over 100 µM in test [5]. Further, in test [7], the IC50 is 12.6 µM.

Consider `Cn1cc(-c2ccc3nc(N)sc3c2)cn1`, for which the half-inhibitory concentration (IC50) is 7.94 µM in test [1]; 1.26 µM in test [2]; 2.51 µM in test [3]; 2.51 µM in test [4]; 15.8 µM in test [6]; over 100 µM in test [5]. In addition, in test [7], the IC50 was 7.94 µM.

For the compound `CCn1cc(-c2ccc3nc(N)sc3c2)cn1`, the IC50 in test [1] is 20 µM; in test [2] it was 1.58 µM; in test [3] it was 3.16 µM; in test [4], 3.16 µM; in test [6] it was 31.6 µM; in test [5], over 100 µM. The concentration for half-maximal inhibition (IC50) in test [7] is 12.6 µM.

As for `CCCn1cc(-c2ccc3nc(N)sc3c2)cn1`, the half-inhibitory concentration (IC50) is 12.6 µM in test [1]; 2 µM in test [2]; 1.58 µM in test [3]; 1.58 µM in test [4]; 12.6 µM in test [6]; 25.1 µM in test [5]. Also, the half-inhibitory concentration (IC50) in test [7] is 12.6 µM.

Regarding `CC(C)n1cc(-c2ccc3nc(N)sc3c2)cn1`, the 50% inhibitory concentration (IC50) in test [1] is 20 µM; in test [2], 2.51 µM; in test [3] it was 3.98 µM; in test [4], 25.1 µM; in test [5], 63.1 µM; in test [7] it was 15.8 µM.

On to `Nc1nc2ccc(-c3cnn(C4CC4)c3)cc2s1`, for which the 50% inhibitory concentration (IC50) in test [1] is 3.98 µM; in test [2], 2 µM; in test [3], 1 µM; in test [4], 7.94 µM; in test [6] it was 10 µM; in test [5] it was over 100 µM. Besides, in test [7], the half-inhibitory concentration (IC50) was 10 µM.

`Nc1nc2ccc(-c3cnn(CC4CC4)c3)cc2s1`: the IC50 was 20 µM in test [1]; 2 µM in test [2]; 1.26 µM in test [3]; 0.631 µM in test [4]; 15.8 µM in test [6]; 12.6 µM in test [7].

On to `Nc1nc2ccc(-c3cnn(Cc4ccccc4)c3)cc2s1`, for which the IC50 in test [1] is 20 µM; in test [2], 0.794 µM; in test [3], 2 µM; in test [4] it was 0.158 µM; in test [6] it was 25.1 µM; in test [5] it was over 100 µM. Moreover, in test [7], the half-inhibitory concentration (IC50) was 7.94 µM.

For `Cn1ccc(-c2ccc3nc(N)sc3c2)cc1=O`, the IC50 in test [1] was 5.01 µM; in test [2] it was 0.316 µM; in test [4] it was 0.501 µM; in test [6], 63.1 µM; in test [5] it was over 100 µM; in test [7], 2.51 µM.

For the compound `CCn1ccc(-c2ccc3nc(N)sc3c2)cc1=O`, the IC50 in test [1] was 10 µM; in test [2] it was 0.316 µM; in test [3], 3.16 µM; in test [4], 0.316 µM; in test [6], 50.1 µM; in test [5] it was over 100 µM. Besides, in test [7], the IC50 was 6.31 µM.

With `COCCOn1ccc(-c2ccc3nc(N)sc3c2)cc1=O`, the half-maximal inhibitory concentration (IC50) in test [1] was over 200 µM; in test [2], 10 µM; in test [3], 10 µM; in test [4], 0.631 µM; in test [6], over 200 µM; in test [5], over 100 µM. For the same compound, the IC50 in test [7] is 25.1 µM.

In the case of `Nc1nc2ccc(-c3ccccc3)cc2s1`, the IC50 was 0.501 µM in test [2], 2.51 µM in test [4], over 100 µM in test [5] and 12.6 µM in test [7].
